Here are results for 3 substances from US20130156845A1, “LIPID FORMULATED SINGLE STRANDED RNA” (ALNYLAM PHARMACEUTICALS, INC., priority 2010, published 2013).

The conditions of series [1]: mouse, serum.
Experimental: Single-stranded oligomeric compounds were tested for stability in mouse serum.
Series [2] has as its system PTEN. As to the kind of experiment: PTEN mRNA reduction in HeLa cells, dose response (Example 59). The note with it: percent inhibition of PTEN mRNA, real-time PCR normalized to RIBOGREEN, 0.20-50 nM. The class given is cell-based, human. The protocol:
When cells reached 65-75% confluency, they are treated with one or more oligomeric compounds. The oligomeric compound is mixed with LIPOFECTIN™ Invitrogen Life Technologies, Carlsbad, Calif.) in Opti-MEM™-1 reduced serum medium (Invitrogen Life Technologies, Carlsbad, Calif.) to achieve the desired concentration of the oligomeric compound(s) and a LIPOFECTIN™ concentration of 2.5 or 3 μg/mL per 100 nM oligomeric compound(s). This transfection mixture is incubated at room temperature for approximately 0.5 hours. For cells grown in 96-well plates, wells are washed once with 100 μL OPTI-MEM™-1 and then treated with 130 μL of the transfection mixture. Cells grown in 24-well plates or other standard tissue culture plates are treated similarly, using appropriate volumes of medium and oligomeric compound(s). […]
Quantitation of target mRNA levels is accomplished by real-time quantitative PCR using the ABI PRISM™ 7600, 7700, or 7900 Sequence Detection System (PE-Applied Biosystems, Foster City, Calif.) according to manufacturer's instructions. This is a closed-tube, non-gel-based, fluorescence detection system which allows high-throughput quantitation of polymerase chain reaction (PCR) products in real-time. As opposed to standard PCR in which amplification products are quantitated after the PCR is completed, products in real-time quantitative PCR are quantitated as they accumulate. […]

Series [3] deals with human PTEN. Briefly: PTEN expression in HeLa cells, ssRNAs vs siRNAs (Example 62). Type of series: cell-based. The procedure, abridged: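 HeLa cells treated with antisense strands either as single-stranded RNAs or duplexed with a common sense strand. PTEN mRNA levels normalized; IC50 from linear regression of normalized mRNA against log concentration.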
In series [4] the test system is PTEN. Briefly: PTEN mRNA reduction in HeLa cells, dose response (Example 69). Type of series: cell-based, human. As to conditions: percent inhibition of PTEN mRNA, 0.067-50 nM. The protocol: In accordance with the present disclosure, oligomeric compounds were synthesized and tested for their ability to reduce PTEN expression over a range of doses. Human HeLa cells were treated with either ISIS 447581, 467074, 418046 or 467076. A dose comparison was evaluated with dose concentrations of 0.067, 0.2, 0.62, 1.9, 5.5, 16.7 and 50 nM using methods described herein. Expression levels of PTEN were determined using real-time PCR and normalized to RIBOGREEN™ using methods described herein. The percent inhibition of PTEN mRNA was determined and the resulting dose-response curves were used to determine the EC50. The EC50s are listed below.

In series [5] the test system is A549 cells. Briefly: MicroRNA mimics: cell cycle assay. Type of series: cell-based. The note with it: RNAIMAX transfection, 0.1-100 nM, nocodazole, propidium iodide flow cytometry. The method, then:
A cell cycle assay was used to evaluate the activity of microRNA mimics. A549 cells were plated at a density of approximately 45,000 cells per well of a 24-well plate. The following day, cells were transfected with microRNA mimics and control oligomeric compounds, using RNAIMAX as the transfection reagent. Oligomeric compounds were tested at concentrations ranging from 0.1 nM to 100 nM. Control oligomeric compounds were also tested. Approximately 24 hours following transfection, nocodazole was added to the cells at a concentration ranging from 0.5 to 2.0 μg/ml. Approximately 16 hours later, the cells were harvested, washed, ethanol-fixed and stained with propidium iodide. Cells cycle profiles were generated by subjecting the stained cells to flow cytometry (FACSCAN).

Series [6] relates to miR-34 seed-matched nucleic acids. As to the kind of experiment: Microarray analysis of gene expression changes after miR-34 mimics. Type of series: cell-based. As to conditions: microarray analysis of cells treated with miR-34 mimics. From the text: In addition to measuring cell cycle progression, cells treated with miR-34 mimics were subjected to microarray analysis to compare the profile of gene expression changes following treatment with microRNA mimics.

Read-outs that look alike come from different tables or passages of the source. Strand notation (5' to 3'): a small letter for the sugar, then the base; units joined by * are phosphorothioate-linked, units joined directly phosphodiester-linked; [ ] holds rarer units or linkages, { } end groups; capitals alone tell only the bases. [Rc] = thymidine, 2',5'-bis modified nucleoside Rc; e = 2'-O-(2-methoxyethyl) (MOE); m = 2'-O-methyl; {P} = phosphate; f = 2'-fluoro

On to “5′-Ps-UdUfoGfoUfoCfoUfoCfoUfoGfoGfoUfoCfoCfoUfsUfsAfsCfsUfsUfsAesAe [ISIS 435395]”, for which the T1/2 full length in series [1] was found to be 7.8 h.

For the substance “P-TRcUfGmUfCmUfCmUfGmGfUmCfCmUfUmAfCmUfUmAeAe (antisense TUGUCUCUGGUCCUUACUUAA; sugars from the 5' end [Rc]fmfmfmfmfmfmfmfmfmee, 5' {P}, backbone not given here) [ISIS 447581, modified ssRNA targeting PTEN]”, the EC50 in series [2] is 0.87 nM; in series [3] (antisense strand duplexed with sense strand ISIS 341401, PTEN mRNA, read-out: EC50 (nM) siRNA), 0.4 nM; in series [3] (single stranded antisense compound, PTEN mRNA, read-out: EC50 (nM) ssRNA), 1 nM; in series [4], 0.6 nM.

With “P-UmGfGfCfAfGfUfGfUmCmUfUfAmGmCfUfGfGfUfUfGfUfAeAe ({P}-mUfGfGfCfAfGfUfGmUmCfUfUmAmGfCfUfG*fG*fU*fU*fG*fU*eA*eA) [ss miR-34]”, the cell cycle phenotype entry in series [5] was “blocking cells in the G1 phase of the cell cycle”. In addition, the “effect on miR-34 seed-matched nucleic acids” value in series [6] is recorded as “down-regulated miR-34 seed-matched nucleic acids”.

In general, EC50 refers to the concentration needed to bring the measured effect to its halfway point.
